pIC50: −log10 of the molar value.
Legend:
Gelatinase (MMP-2) = biological target: T1, Gelatinase (MMP-2) (Homo sapiens, UniProt P08253); test: Gelatinase (MMP-2) inhibitory activity, fluorogenic peptide substrate assay; format: biochemical; conditions: substrate 5 μM, 60 min preincubation, 20-25° C.; read-out: MMP2 IC50
T1 sequence (P08253 110-660): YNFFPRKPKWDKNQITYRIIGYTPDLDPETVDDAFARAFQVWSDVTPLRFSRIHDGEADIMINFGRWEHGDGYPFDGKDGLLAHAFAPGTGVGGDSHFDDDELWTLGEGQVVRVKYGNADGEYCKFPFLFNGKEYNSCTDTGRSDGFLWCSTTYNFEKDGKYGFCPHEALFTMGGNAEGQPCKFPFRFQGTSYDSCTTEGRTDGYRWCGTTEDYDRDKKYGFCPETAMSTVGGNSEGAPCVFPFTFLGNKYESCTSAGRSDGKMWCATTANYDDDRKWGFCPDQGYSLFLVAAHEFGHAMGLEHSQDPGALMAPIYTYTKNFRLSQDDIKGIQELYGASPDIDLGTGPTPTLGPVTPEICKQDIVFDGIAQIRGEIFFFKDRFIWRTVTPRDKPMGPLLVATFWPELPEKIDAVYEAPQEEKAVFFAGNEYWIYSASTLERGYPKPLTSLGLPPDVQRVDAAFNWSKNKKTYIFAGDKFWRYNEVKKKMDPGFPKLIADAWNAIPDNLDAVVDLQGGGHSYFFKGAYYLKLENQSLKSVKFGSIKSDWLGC
Experimental: (§1) Stock solutions of inhibitors (0.03 mM-3 mM) are also prepared in DMSO. The inhibitors are diluted into the assay solutions, and the controls use an equal volume of DMSO so that the final DMSO concentration from the inhibitor and substrate dilutions in all assays is 1.0%. Assays are performed in an assay buffer (100 mM sodium chloride, 10 μM ZnCl. Sub 2, 10 mM CaCl2, 100 mM Tris-Cl pH7.5, 0.05% Brij-35), containing 1.0% DMSO from the substrate and inhibitor additions. The substrate concentration used in the assays is 5 μM. The assays are carried out at 20-25° C. […] The reaction mixtures are added in duplicate into appropriate wells of a 384-well assay plate. The reaction mixtures are preincubated with the inhibitors for 60 minutes The reactions are started by the addition of MMP substrate, and the fluorescence intensity changes are measured after 60 minutes The apparent enzyme activity in the presence of an inhibitor is then compared with that in the absence of any inhibitor to determine the inhibition effect of the inhibitor.

Collagenase-3 (MMP-13) = Collagenase-3 (MMP-13) (Homo sapiens, UniProt P45452); test: Collagenase-3 (MMP-13) inhibitory activity, fluorogenic peptide substrate assay; format: biochemical; conditions: recombinant pro-collagenase-3 activated with 1 mM APMA; read-out: MMP13 IC50
Experimental: as §1
Collagenase-3 (MMP-13) inhibitory activity is determined as described above. Recombinant pro-collagenase-3 is activated with 1 mM APMA, and stored in the assay buffer after extensive dialysis in the assay buffer.

Q: Which results are given for `CC(=O)Nc1ccc2cc(S(=O)(=O)N(CCCc3ccccc3)[C@@H](C(=O)NO)C(C)C)ccc2c1` [Example 34, 2-[(6-Acetylamino-naphthalene-2-sulfonyl)-(3-phenyl-propyl)-amino]-N-hydroxy-3-methyl-butyramide]?
A: pIC50 (Gelatinase (MMP-2)): 5.54; pIC50 (Collagenase-3 (MMP-13)): 5.88

Q: How did the pIC50 (Gelatinase (MMP-2)) turn out when `CC(C)(C)[C@@H](NS(=O)(=O)c1ccc2ccccc2c1)C(=O)NO` [Example 93, (R)—N-Hydroxy-3,3-dimethyl-2-(naphthalene-2-sulfonylamino)-butyramide] was run?
A: 6.22

Q: What about the pIC50 (Collagenase-3 (MMP-13)) of the same compound?
A: 7.05

Q: Which results are given for `CC(=O)N(CCC(C)C)c1ccc2ccc(S(=O)(=O)N(CCC(C)C)[C@@H](C(=O)NO)C(C)C)cc2c1` [Example 71, 2-[{7-[Acetyl-(3-methyl-butyl)-amino]-naphthalene-2-sulfonyl}-(3-methyl-butyl)-amino]-N-hydroxy-3-methyl-butyramide]?
A: pIC50 (Gelatinase (MMP-2)): < 4.52; pIC50 (Collagenase-3 (MMP-13)): < 4.52

Q: How did the pIC50 (Gelatinase (MMP-2)) turn out when `COc1c(S(=O)(=O)N(CCC(C)C)[C@@H](C(=O)NO)C(C)C)ccc2ccccc12` [Example 79, (R)—N-Hydroxy-2-[(1-methoxy-naphthalene-2-sulfonyl)-(3-methyl-butyl)-amino]-3-methyl-butyramide] was run?
A: 7.29

Q: And the pIC50 (Collagenase-3 (MMP-13))?
A: 8.96

Q: How did the pIC50 (Gelatinase (MMP-2)) turn out when `O=C(NO)[C@H]1C2CCC(CC2)N1S(=O)(=O)c1ccc2ccccc2c1` [Example 91, (R)-2-(Naphthalene-2-sulfonyl)-2-aza-bicyclo[2.2.2]octane-3-carboxylic acid hydroxyamide] was run?
A: 4.65

Q: What about the pIC50 (Collagenase-3 (MMP-13)) of the same compound?
A: 5.16

Q: With `CC(C)CCN([C@@H](C(=O)NO)C(C)C)S(=O)(=O)c1ccc2ccccc2c1O` [Example 1, (R)—N-Hydroxy-2-[(1-hydroxy-naphthalene-2-sulfonyl)-(3-methyl-butyl)-amino]-3-methyl-butyramide] as the compound, how does the pIC50 (Gelatinase (MMP-2)) read?
A: < 5.52

Q: What about the pIC50 (Collagenase-3 (MMP-13)) of the same compound?
A: 6.17

Q: `C=CC1=CCN(S(=O)(=O)c2ccc3ccccc3c2)[C@@H](C(=O)NO)C1` [Example 44, (R)-1-(Naphthalene-2-sulfonyl)-4-vinyl-1,2,3,6-tetrahydro-pyridine-2-carboxylic acid hydroxyamide] was tested. Which pIC50 (Gelatinase (MMP-2)) did it give?
A: 7.52

Q: What about the pIC50 (Collagenase-3 (MMP-13)) of the same compound?
A: 8.74

Q: With `CC(C)CCN(C1(C(=O)NO)CCCC1)S(=O)(=O)c1ccc2ccccc2c1` [Example 70, 1-[(3-Methyl-butyl)-(naphthalene-2-sulfonyl)-amino]-cyclopentanecarboxylic acid hydroxyamide] as the compound, how does the pIC50 (Gelatinase (MMP-2)) read?
A: 6.03

Q: And the pIC50 (Collagenase-3 (MMP-13))?
A: 6.67

Q: Which results are given for `COc1c(S(=O)(=O)N2CC=CC[C@@H]2C(=O)NO)ccc2ccccc12` [Example 78, (R)-1-(1-Methoxy-naphthalene-2-sulfonyl)-1,2,3,6-tetrahydro-pyridine-2-carboxylic acid hydroxyamide]?
A: pIC50 (Gelatinase (MMP-2)): 7.70; pIC50 (Collagenase-3 (MMP-13)): 8.68

Q: `CS(=O)(=O)CCC(NS(=O)(=O)c1ccc2ccccc2c1)C(=O)NO` (centres unmarked) [Example 18, N-Hydroxy-4-methanesulfonyl-2-(naphthalene-2-sulfonylamino)-butyramide] was tested. Which pIC50 (Gelatinase (MMP-2)) did it give?
A: 6.80

Q: What about the pIC50 (Collagenase-3 (MMP-13)) of the same compound?
A: 6.82

Q: With `CC(C)[C@H](C(=O)NO)N(CCCc1ccccc1)S(=O)(=O)c1ccc2cc(N)ccc2c1` [Example 32, 2-[(6-Amino-naphthalene-2-sulfonyl)-(3-phenyl-propyl)-amino]-N-hydroxy-3-methyl-butyramide] as the compound, how does the pIC50 (Gelatinase (MMP-2)) read?
A: 7.09

Q: What about the pIC50 (Collagenase-3 (MMP-13)) of the same compound?
A: 9.00

Q: How did the pIC50 (Gelatinase (MMP-2)) turn out when `Cc1ccc2ccc(S(=O)(=O)N(CCC(C)C)[C@@H](C(=O)NO)C(C)C)cc2c1` [Example 85, N-isoamyl-N-(6-methylnaphthalene-2-sulfonyl)-D-valine hydroxamic acid] was run?
A: 5.47

Q: And the pIC50 (Collagenase-3 (MMP-13))?
A: 6.87

Q: How did the pIC50 (Gelatinase (MMP-2)) turn out when `O=C(NO)[C@H]1CCCN1S(=O)(=O)c1ccc2ccccc2c1` (stereo in doubt) [Example 52, 1-(Naphthalene-2-sulfonyl)-pyrrolidine-2-carboxylic acid hydroxyamide] was run?
A: 6.46

Q: And the pIC50 (Collagenase-3 (MMP-13))?
A: 6.53

Q: Which results are given for `CC(C)[C@H](C(=O)NO)N(CCOc1ccc(Cl)cc1)S(=O)(=O)c1ccc2ccccc2c1` [Example 58, (R)-2-[[2-(4-Chloro-phenoxy)-ethyl]-(naphthalene-2-sulfonyl)-amino]-N-hydroxy-3-methyl-butyramide]?
A: pIC50 (Gelatinase (MMP-2)): 5.58; pIC50 (Collagenase-3 (MMP-13)): 6.94

Q: What does the source list for `C=CCOc1ccc2cc(S(=O)(=O)N(CCC(C)C)[C@@H](C(=O)NO)C(C)C)ccc2c1` [Example 66, 2-[(6-Allyloxy-naphthalene-2-sulfonyl)-(3-methyl-butyl)-amino]-N-hydroxy-3-methyl-butyramide]?
A: pIC50 (Gelatinase (MMP-2)): 6.89; pIC50 (Collagenase-3 (MMP-13)): 8.14

Q: With `CC(C)CCN(C(C)(C)C(=O)NO)S(=O)(=O)c1ccc2ccccc2c1` [Example 65, N-Hydroxy-2-methyl-2-[(3-methyl-butyl)-(naphthalene-2-sulfonyl)-amino]-propionamide] as the compound, how does the pIC50 (Gelatinase (MMP-2)) read?
A: 5.54

Q: And the pIC50 (Collagenase-3 (MMP-13))?
A: 5.65

Q: What does the source list for `CCOc1ccc2ccc(S(=O)(=O)N(Cc3ccccc3)[C@@H](C(=O)NO)C(C)C)cc2c1` [Example 27, 2-[Benzyl-(7-ethoxy-naphthalene-2-sulfonyl)-amino]-N-hydroxy-3-methyl-butyramide]?
A: pIC50 (Gelatinase (MMP-2)): 5.36; pIC50 (Collagenase-3 (MMP-13)): 6.27

Q: Which results are given for `O=C(NO)[C@H]1CC=CCCN1S(=O)(=O)c1ccc2ccccc2c1` [Example 88, (R)-1-(Naphthalene-2-sulfonyl)-2,3,6,7-tetrahydro-1H-azepine-2-carboxylic acid hydroxyamide]?
A: pIC50 (Gelatinase (MMP-2)): 7.20; pIC50 (Collagenase-3 (MMP-13)): 7.79

Q: With `O=C(NO)[C@H]1CCCCCN1S(=O)(=O)c1ccc2ccccc2c1` [Example 33, (R)-1-(Naphthalene-2-sulfonyl)-azepane-2-carboxylic acid hydroxyamide] as the compound, how does the pIC50 (Gelatinase (MMP-2)) read?
A: 7.13

Q: And the pIC50 (Collagenase-3 (MMP-13))?
A: 8.06

Q: What does the source list for `CC(C)CCNc1ccc2ccc(S(=O)(=O)N(CCC(C)C)[C@@H](C(=O)NO)C(C)C)cc2c1` [Example 57, N-Hydroxy-3-methyl-2-{(3-methyl-butyl)-[7-(3-methyl-butylamino)-naphthalene-2-sulfonyl]-amino}-butyramide]?
A: pIC50 (Gelatinase (MMP-2)): < 5.52; pIC50 (Collagenase-3 (MMP-13)): 5.80

Q: `CC(C)CCN(C1(C(=O)NO)CC1)S(=O)(=O)c1ccc2ccccc2c1` [Example 73, 1-[(3-Methyl-butyl)-(naphthalene-2-sulfonyl)-amino]-cyclopropanecarboxylic acid hydroxyamide] was tested. Which pIC50 (Gelatinase (MMP-2)) did it give?
A: 6.40

Q: What about the pIC50 (Collagenase-3 (MMP-13)) of the same compound?
A: 7.46

Q: `CC(C)(NS(=O)(=O)c1ccc2ccccc2c1)C(=O)NO` [Example 12, N-Hydroxy-2-methyl-2-(naphthalene-2-sulfonylamino)-propionamide] was tested. Which pIC50 (Gelatinase (MMP-2)) did it give?
A: 6.10

Q: What about the pIC50 (Collagenase-3 (MMP-13)) of the same compound?
A: 6.12

Q: What does the source list for `CC(C)[C@H](C(=O)NO)N(CCOc1ccccc1Cl)S(=O)(=O)c1ccc2ccccc2c1` [Example 64, N-(2-(2-chlorophenoxy)ethyl)-N-(naphthalene-2-sulfonyl)-D-valine hydroxamic acid]?
A: pIC50 (Gelatinase (MMP-2)): 6.05; pIC50 (Collagenase-3 (MMP-13)): 7.79

Q: `O=C(NO)[C@H]1CCCCN1S(=O)(=O)c1ccc2ccccc2c1` [Example 9, (R)-1-(Naphthalene-2-sulfonyl)-piperidine-2-carboxylic acid hydroxyamide] was tested. Which pIC50 (Gelatinase (MMP-2)) did it give?
A: 7.31

Q: What about the pIC50 (Collagenase-3 (MMP-13)) of the same compound?
A: 8.31

Q: With `CC(C)[C@H](C(=O)NO)N(CCOc1cccc(Cl)c1)S(=O)(=O)c1ccc2ccccc2c1` [Example 62, N-(2-(3-chlorophenoxy)ethyl)-N-(naphthalene-2-sulfonyl)-D-valine hydroxamic acid] as the compound, how does the pIC50 (Gelatinase (MMP-2)) read?
A: 5.41

Q: What about the pIC50 (Collagenase-3 (MMP-13)) of the same compound?
A: 6.86

Q: `COc1cccc(OCCN([C@@H](C(=O)NO)C(C)C)S(=O)(=O)c2ccc3ccccc3c2)c1` [Example 46, (R)—N-Hydroxy-2-[[2-(3-methoxy-phenoxy)-ethyl]-(naphthalene-2-sulfonyl)-amino]-3-methyl-butyramide] was tested. Which pIC50 (Gelatinase (MMP-2)) did it give?
A: 6.18

Q: What about the pIC50 (Collagenase-3 (MMP-13)) of the same compound?
A: 7.86

Q: With `CC(C)CCN([C@@H](C(=O)NO)C(C)C)S(=O)(=O)c1ccc2ccc(N)cc2c1` [Example 84, 2-[(7-Amino-naphthalene-2-sulfonyl)-(3-methyl-butyl)-amino]-N-hydroxy-3-methyl-butyramide] as the compound, how does the pIC50 (Gelatinase (MMP-2)) read?
A: < 6.00

Q: And the pIC50 (Collagenase-3 (MMP-13))?
A: 7.28

Q: `O=C(NO)[C@H]1CC=C(c2ccccc2)CN1S(=O)(=O)c1ccc2ccccc2c1` [Example 39, (R)-1-(Naphthalene-2-sulfonyl)-5-phenyl-1,2,3,6-tetrahydro-pyridine-2-carboxylic acid hydroxyamide] was tested. Which pIC50 (Gelatinase (MMP-2)) did it give?
A: 7.56

Q: What about the pIC50 (Collagenase-3 (MMP-13)) of the same compound?
A: 8.85

Q: `CC(C)[C@H](C(=O)NO)N(CCOc1ccccc1)S(=O)(=O)c1ccc2ccccc2c1` [Example 30, N-(2-phenoxyethyl)-N-(naphthalene-2-sulfonyl)-D-valine hydroxamic acid] was tested. Which pIC50 (Gelatinase (MMP-2)) did it give?
A: 7.21

Q: What about the pIC50 (Collagenase-3 (MMP-13)) of the same compound?
A: 8.68

Q: How did the pIC50 (Gelatinase (MMP-2)) turn out when `O=C(NO)[C@H]1CC=CCN1S(=O)(=O)c1ccc2ccccc2c1` [Example 26, (R)-1-(Naphthalene-2-sulfonyl)-1,2,3,6-tetrahydro-pyridine-2-carboxylic acid hydroxyamide] was run?
A: 7.73

Q: What about the pIC50 (Collagenase-3 (MMP-13)) of the same compound?
A: 8.77

Q: With `O=C(NO)[C@H]1CC=CCN1S(=O)(=O)c1ccc2ncccc2c1` [Example 63, (R)-1-(Quinoline-6-sulfonyl)-1,2,3,6-tetrahydro-pyridine-2-carboxylic acid hydroxyamide] as the compound, how does the pIC50 (Gelatinase (MMP-2)) read?
A: 7.26

Q: What about the pIC50 (Collagenase-3 (MMP-13)) of the same compound?
A: 7.98
